According to patent US10875851B2, “Factor XIIa inhibitors” (Merck Sharp & Dohme Corp., priority 2016, dated 2020):

target: human Factor XIIa (Homo sapiens (Human), UniProt P00748); assay: Factor XIIa Assay; type: biochemical; conditions: purified human Factor XIIa 500 pM; substrate n-Acetyl-Lys-Pro-Arg-AFC 100 μM; pH 7.4; read-out: FXIIa IC50
Procedure, shortened: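 Purified human FXIIa at 500 pM final with 100 μM n-Acetyl-Lys-Pro-Arg-AFC in 50 mM HEPES, 150 mM NaCl, 5 mM CaCl2, 0.1% PEG 8000, pH 7.4, at room temperature or 37° C. Initial fluorogenic hydrolysis rates measured after enzyme–inhibitor equilibration; IC50 taken where Vi=Vo/2.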

Chain of human Factor XIIa (P00748 373-615): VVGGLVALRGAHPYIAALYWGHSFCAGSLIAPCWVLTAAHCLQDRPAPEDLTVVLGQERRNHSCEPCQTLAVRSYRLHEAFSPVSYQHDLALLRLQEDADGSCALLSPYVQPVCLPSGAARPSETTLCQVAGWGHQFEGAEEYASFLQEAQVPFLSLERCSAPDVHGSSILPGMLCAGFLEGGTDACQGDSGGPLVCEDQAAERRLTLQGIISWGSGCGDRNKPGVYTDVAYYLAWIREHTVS

| SMILES | IC50 |
| --- | --- |
| CC(C)N[C@H](CCCCN1CCCCC1)C(=O)N1CCN(C2=N[C@@H](C)[C@H](c3ccccc3)O2)C[C@H]1C(=O)NCc1cccs1 [Example 115, (2S)-1-[N-(1-methylethyl)-6-piperidin-1-yl-D-norleucyl]-4-[(4S,5S)-4-methyl-5-phenyl-4,5-dihydro-1,3-oxazol-2-yl]-N-(thiophen-2-ylmethyl)piperazine-2-carboxamide] | 3.8 nM |
| CC[C@@H](NC1CCC2(CC1)CCN(Cc1ccccc1)C2)C(=O)N1CCN(C(=O)Oc2ccc(C)c(C)c2Cl)C[C@H]1C(=O)NCc1ccc(CN)c(OC)c1 (stereo partly drawn) [Example 107, 2-chloro-3,4-dimethylphenyl (3S)-3-{[4-(aminomethyl)-3-methoxybenzyl]carbamoyl}-4-{(2R)-2-[(2-benzyl-2-azaspiro[4.5]dec-8-yl)amino]butanoyl}piperazine-1-carboxylate] | 14 nM |
| COc1cc(CNC(=O)[C@@H]2CN(C3=NC(C)(C)[C@H](c4ccccc4)O3)CCN2C(=O)[C@@H](CCCCN(C)C)N(C)C)ccc1C(N)=O [Example 154, (2S)-N-(4-carbamoyl-3-methoxybenzyl)-4-[(5S)-4,4-dimethyl-5-phenyl-4,5-dihydro-1,3-oxazol-2-yl]-1-(N^2,N^2,N^6,N^6-tetramethyl-D-lysyl)piperazine-2-carboxamide] | 12.4 nM |
| O=C(NCc1cccs1)[C@@H]1CN(C(=O)Oc2ccccc2Cl)CCN1C(=O)[C@@H](CCCCN1CCCCC1)NC1CCCCC1 [Example 97, 2-chlorophenyl (3S)-4-(N-cyclohexyl-6-piperidin-1-yl-D-norleucyl)-3-[(thiophen-2-ylmethyl)carbamoyl]piperazine-1-carboxylate] | 0.7 nM |
| C[C@@H]1N=C(N2CCN(C(=O)[C@@H](CC3CCN(C4CCC(C(N)=O)CC4)CC3)NC3CCC(C(N)=O)CC3)[C@H](C(=O)NCc3cccs3)C2)O[C@H]1c1ccccc1 (stereo partly drawn) [Example 182, (2S)-1-{N-(4-carbamoylcyclohexyl)-3-[1-(4-carbamoylcyclohexyl)piperidin-4-yl]-D-alanyl}-4-[(4S,5S)-4-methyl-5-phenyl-4,5-dihydro-1,3-oxazol-2-yl]-N-(thiophen-2-ylmethyl)piperazine-2-carboxamide] | 34.2 nM |
| COc1cc(CNC(=O)[C@@H]2CN(C3=N[C@@H](C)[C@H](c4ccccc4)O3)CCN2C(=O)[C@@H](CCCCN2CCCCC2)NC2CCC(CN)CC2)ccc1C(N)=O (stereo partly drawn) [Example 165, (2S)-1-{N-[4-(aminomethyl)cyclohexyl]-6-piperidin-1-yl-D-norleucyl}-N-(4-carbamoyl-3-methoxybenzyl)-4-[(4S,5S)-4-methyl-5-phenyl-4,5-dihydro-1,3-oxazol-2-yl]piperazine-2-carboxamide] | 41.1 nM |
| CC(C)N[C@H](CCCCN1CCCCC1)C(=O)N1CCN(C2=NC(C)(C)C(c3ccccc3)O2)C[C@H]1C(=O)NCc1cccc(Cl)c1 (stereo partly drawn) [Example 160, (2S)-N-(3-chlorobenzyl)-4-(4,4-dimethyl-5-phenyl-4,5-dihydro-1,3-oxazol-2-yl)-1-[N-(1-methylethyl)-6-piperidin-1-yl-D-norleucyl]piperazine-2-carboxamide] | 13.8 nM |
| CN(C)CCCC[C@@H](NC1CCCCC1)C(=O)N1CCN(C2=NC(C)(C)CO2)C[C@H]1C(=O)NCc1cccs1 [Example 144, (2S)-1-(N^2-cyclohexyl-N^6,N^6-dimethyl-D-lysyl)-4-(4,4-dimethyl-4,5-dihydro-1,3-oxazol-2-yl)-N-(thiophen-2-ylmethyl)piperazine-2-carboxamide] | 29.7 nM |
| CN(C)CCCC[C@@H](NC1CCC2(CC1)CCN(Cc1ccccc1)C2)C(=O)N1CCN(C(=O)Oc2ccccc2Cl)C[C@H]1C(=O)NCc1cccs1 (stereo partly drawn) [Example 90, 2-chlorophenyl (3S)-4-[N^2-(2-benzyl-2-azaspiro[4.5]dec-8-yl)-N^6,N^6-dimethyl-D-lysyl]-3-[(thiophen-2-ylmethyl)carbamoyl]piperazine-1-carboxylate] | 0.7 nM |
| CC1(C)N=C(N2CCN(C(=O)[C@H](N)CCCCN3CCCCC3)[C@H](C(=O)NCc3cccc(Cl)c3)C2)OC1c1ccccc1 (stereo partly drawn) [Example 156, (2S)-N-(3-chlorobenzyl)-4-(4,4-dimethyl-5-phenyl-4,5-dihydro-1,3-oxazol-2-yl)-1-(6-piperidin-1-yl-D-norleucyl)piperazine-2-carboxamide] | 52.3 nM |
| Cc1ccc(OC(=O)N2CCN(C(=O)[C@@H](CCCCN(C)C)NC3CCC4(CC3)CCN(Cc3ccccc3)C4)[C@H](C(=O)NCc3cccs3)C2)c(Cl)c1C (stereo partly drawn) [Example 108, 2-chloro-3,4-dimethylphenyl (3S)-4-[N^2-(2-benzyl-2-azaspiro[4.5]dec-8-yl)-N^6,N^6-dimethyl-D-lysyl]-3-[(thiophen-2-ylmethyl)carbamoyl]piperazine-1-carboxylate] | 0.3 nM |
| Cc1ccc(OC(=O)N2CCN(C(=O)[C@@H](CCCCNC(C)C)NC3CCC4(CC3)CCN(Cc3ccccc3)C4)[C@H](C(=O)NCc3cccs3)C2)c(Cl)c1C (stereo partly drawn) [Example 105, 2-chloro-3,4-dimethylphenyl (3S)-4-[N^2-(2-benzyl-2-azaspiro[4.5]dec-8-yl)-N^6-(1-methylethyl)-D-lysyl]-3-[(thiophen-2-ylmethyl)carbamoyl]piperazine-1-carboxylate] | 0.5 nM |
| NCc1ccc(CNC(=O)[C@@H]2CN(C(=O)Oc3cccc4ccccc34)CCN2C(=O)[C@@H](CC2CCCCC2)NC2CCCCC2)cc1 [Example 26, naphthalen-1-yl (3S)-3-{[4-(aminomethyl)benzyl]carbamoyl}-4-(N,3-dicyclohexyl-D-alanyl)piperazine-1-carboxylate] | 8.4 nM |
| Cc1ccc(OC(=O)N2CCN(C(=O)[C@@H](CCCCN3CCCC3C)NC3CCC4(CC3)CCN(Cc3ccccc3)C4)[C@H](C(=O)NCc3cccs3)C2)c(Cl)c1C (stereo partly drawn) [Example 110, 2-chloro-3,4-dimethylphenyl (3S)-4-[N-(2-benzyl-2-azaspiro[4.5]dec-8-yl)-6-(2-methylpyrrolidin-1-yl)-D-norleucyl]-3-[(thiophen-2-ylmethyl)carbamoyl]piperazine-1-carboxylate] | 0.3 nM |
| C[C@@H]1N=C(N2CCN(C(=O)[C@@H](CCCCN3CCCCC3)NC3CCC(CN)CC3)[C@H](C(=O)NCc3ccc4[nH]cc(Cl)c4c3)C2)O[C@H]1c1ccccc1 (stereo partly drawn) [Example 172, (2S)-1-{N-[4-(aminomethyl)cyclohexyl]-6-piperidin-1-yl-D-norleucyl}-N-[(3-chloro-1H-indol-5-yl)methyl]-4-[(4S,5S)-4-methyl-5-phenyl-4,5-dihydro-1,3-oxazol-2-yl]piperazine-2-carboxamide] | 0.6 nM |
| Cc1ccc(OC(=O)N2CCN(C(=O)[C@@H](CCCCNC(C)C)NC(C)C)[C@H](C(=O)NCc3cccs3)C2)c(Cl)c1C [Example 103, 2-chloro-3,4-dimethylphenyl (3S)-4-[N^2,N^6-bis(1-methylethyl)-D-lysyl]-3-[(thiophen-2-ylmethyl)carbamoyl]piperazine-1-carboxylate] | 1.4 nM |
| CS(=O)(=O)N1CCC([C@@H](NC2CCCCC2)C(=O)N2CCN(C(=O)Oc3ccccc3Cl)C[C@H]2C(=O)NCc2cccs2)CC1 [Example 42, 2-chlorophenyl (3S)-4-{(2R)-2-(cyclohexylamino)-2-[1-(methylsulfonyl)piperidin-4-yl]acetyl}-3-[(thiophen-2-ylmethyl)carbamoyl]piperazine-1-carboxylate] | 6 nM |
| CC(C)N[C@H](CCCCN1CCCCC1)C(=O)N1CCN(C2=N[C@@H](C)[C@H](c3cccc(Br)c3)O2)C[C@H]1C(=O)NCc1cccc(Cl)c1 [Example 168, (2S)-4-[(4S,5S)-5-(3-bromophenyl)-4-methyl-4,5-dihydro-1,3-oxazol-2-yl]-N-(3-chlorobenzyl)-1-[N-(1-methylethyl)-6-piperidin-1-yl-D-norleucyl]piperazine-2-carboxamide] | 8.2 nM |
| O=C(NCc1cccs1)[C@@H]1CN(C(=O)Oc2ccccc2Cl)CCN1C(=O)[C@H](NC1CCCCC1)C1CCN(S(=O)(=O)C2CC2)CC1 [Example 62, 2-chlorophenyl (3S)-4-{(2R)-2-(cyclohexylamino)-2-[1-(cyclopropylsulfonyl)piperidin-4-yl]acetyl}-3-[(thiophen-2-ylmethyl)carbamoyl]piperazine-1-carboxylate] | 1.7 nM |
| C[C@@H]1N=C(N2CCN(C(=O)[C@H](CCCCN(C)C)NC3CCC4(CC3)CCN(Cc3ccccc3)C4)[C@H](C(=O)NCc3cccs3)C2)O[C@H]1c1ccccc1 (stereo partly shown) [Example 136] | 23.2 nM |
| CN(C)CCCC[C@H](C(=O)N1CCN(C2=NC(C)(C)C(c3ccccc3)O2)C[C@H]1C(=O)NCc1ccc2[nH]cc(Cl)c2c1)N(C)C (stereo partly drawn) [Example 146, (2S)-N-[(3-chloro-1H-indol-5-yl)methyl]-4-(4,4-dimethyl-5-phenyl-4,5-dihydro-1,3-oxazol-2-yl)-1-(N^2,N^2,N^6,N^6-tetramethyl-D-lysyl)piperazine-2-carboxamide] | 5.7 nM |
| CS(=O)(=O)NCCCC[C@@H](NC1CCC2(CC1)CCN(Cc1ccccc1)C2)C(=O)N1CCN(C(=O)Oc2cccc(CN)c2Cl)C[C@H]1C(=O)NCc1cccs1 (stereo partly drawn) [Example 82, 3-(aminomethyl)-2-chlorophenyl (3S)-4-[N^2-(2-benzyl-2-azaspiro[4.5]dec-8-yl)-N^6-(methylsulfonyl)-D-lysyl]-3-[(thiophen-2-ylmethyl)carbamoyl]piperazine-1-carboxylate] | 2.1 nM |
